Measurements taken from ChEMBL document CHEMBL3124792, “Discovery and preclinical characterization of the cyclopropylindolobenzazepine BMS-791325, a potent allosteric inhibitor of the hepatitis C virus NS5B polymerase” (J Med Chem, 2014).

Target: T1, PXR (NR1I2) (Homo sapiens, UniProt O75469)
T1 sequence (O75469 whole entry): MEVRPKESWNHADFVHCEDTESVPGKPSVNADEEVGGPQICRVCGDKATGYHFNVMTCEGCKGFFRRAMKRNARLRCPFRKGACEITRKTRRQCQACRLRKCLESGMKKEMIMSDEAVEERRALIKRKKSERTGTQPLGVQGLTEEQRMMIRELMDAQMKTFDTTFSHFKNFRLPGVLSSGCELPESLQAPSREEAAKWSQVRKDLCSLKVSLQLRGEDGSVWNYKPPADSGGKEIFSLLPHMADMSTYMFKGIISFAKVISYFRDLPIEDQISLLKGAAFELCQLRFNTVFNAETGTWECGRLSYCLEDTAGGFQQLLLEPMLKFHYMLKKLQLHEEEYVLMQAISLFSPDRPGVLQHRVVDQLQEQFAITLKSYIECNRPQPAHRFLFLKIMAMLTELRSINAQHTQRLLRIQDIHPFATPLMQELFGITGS
Assay: Transactivation of human PXR expressed in human HepG2 cells by luciferase reporter gene assay relative to control
Assay type: cell-based
Conditions: HepG2 cells expressing human PXR, read-out: %max

Which Emax does the source give for `COc1ccc2c(c1)C1CC1(C(=O)N1CC3CCC(C1)O3)Cn1c-2c(C2CCCCC2)c2ccc(C(=O)NS(=O)(=O)N(C)C)cc21` (racemic) here?
The Emax was 144%.

With `COc1ccc2c(c1)C1CC1(C(=O)N1CC(O)(c3ccc(F)cc3)C1)Cn1c-2c(C2CCCCC2)c2ccc(C(=O)NS(=O)(=O)N(C)C)cc21` (racemic) as the molecule, how does the Emax read?
The Emax was 3%.

Target: T2, Nuclear receptor subfamily 1 group I member 2 (Homo sapiens, UniProt O75469)
T2 sequence (O75469 whole entry): T1 sequence (O75469 whole entry)
Assay: Transactivation of human PXR expressed in human HepG2 cells by luciferase reporter gene assay
Assay type: cell-based
Conditions: not given

For `COc1ccc2c(c1)C1CC1(C(=O)N1C3CC1CN(C)C3)Cn1c-2c(C2CCCCC2)c2ccc(C(=O)NS(=O)(=O)N(C)C)cc21` (racemic), which EC50 is on record?
Its EC50 is over 50 µM.

With `COc1ccc2c(c1)C1CC1(C(=O)N1CC3CCC(C1)O3)Cn1c-2c(C2CCCCC2)c2ccc(C(=O)NS(=O)(=O)N(C)C)cc21` (racemic) as the molecule, how does the EC50 read?
The EC50 was 0.6 µM.

For `COc1ccc2c(c1)C1CC1(C(=O)N1CC(O)(c3ccc(F)cc3)C1)Cn1c-2c(C2CCCCC2)c2ccc(C(=O)NS(=O)(=O)N(C)C)cc21` (racemic), which EC50 is on record?
The EC50 was over 50 µM.

Same assay, conditions: human, hepg2

For `COc1ccc2c(c1)C1CC1(C(=O)N1C[C@@H](C)O[C@@H](C)C1)Cn1c-2c(C2CCCCC2)c2ccc(C(=O)NS(=O)(=O)N(C)C)cc21` (mixture of isomers), which EC20 is on record?
Its EC20 is 2.8 µM.

Tested on: not listed separately
Assay: Cytotoxicity against human HuH7 cells by Alamar blue assay
Assay type: cell-based
Conditions: Huh-7 cells

Which CC50 does the source give for `CN(C)S(=O)(=O)NC(=O)c1ccc2c(C3CCCCC3)c3n(c2c1)C[C@@]1(C(=O)N2CCOCC2)C[C@H]1c1ccccc1-3` here?
The CC50 was over 10 µM.

Which CC50 does the source give for `O=C(O)c1ccc2c(C3CCCCC3)c3n(c2c1)CC(C(=O)N1CCOCC1)=Cc1ccccc1-3` here?
Its CC50 is over 10 µM.

With `COc1ccc2c(c1)C1CC1(C(=O)N1C3CC1CN(C)C3)Cn1c-2c(C2CCCCC2)c2ccc(C(=O)NS(=O)(=O)N(C)C)cc21` (racemic) as the molecule, how does the CC50 read?
The CC50 was 10 µM.

For `COc1ccc2c(c1)C1CC1(C(=O)N1C[C@@H](C)O[C@@H](C)C1)Cn1c-2c(C2CCCCC2)c2ccc(C(=O)NS(=O)(=O)N(C)C)cc21` (mixture of isomers), which CC50 is on record?
The CC50 was 9 µM.

With `COc1ccc2c(c1)C1CC1(C(=O)N1CC3CCC(C1)O3)Cn1c-2c(C2CCCCC2)c2ccc(C(=O)NS(=O)(=O)N(C)C)cc21` (racemic) as the molecule, how does the CC50 read?
Its CC50 is over 10 µM.

Which CC50 does the source give for `COc1ccc2c(c1)C1CC1(C(=O)N1CC(O)(c3ccc(F)cc3)C1)Cn1c-2c(C2CCCCC2)c2ccc(C(=O)NS(=O)(=O)N(C)C)cc21` (racemic) here?
The CC50 was 7 µM.

Target: not listed separately
Assay: Inhibition of HCV Con1 genotype 1b recombinant wild-type NS5B polymerase-mediated incorporation of radiolabeled nucleotides by scintillation proximity assay
Design: species or system Hepatitis C virus (isolate Con1)
Conditions: not given

With `CN(C)S(=O)(=O)NC(=O)c1ccc2c(C3CCCCC3)c3n(c2c1)C[C@@]1(C(=O)N2CCOCC2)C[C@H]1c1ccccc1-3` as the molecule, how does the IC50 read?
The IC50 was 0.027 µM.

Which IC50 does the source give for `O=C(O)c1ccc2c(C3CCCCC3)c3n(c2c1)CC(C(=O)N1CCOCC1)=Cc1ccccc1-3` here?
The IC50 was 0.106 µM.

Tested on: Hepatitis C virus
Assay: Antiviral activity against Hepatitis C virus Con1 genotype 1b infected in human HuH7 cells after 3 days by FRET assay in presence of 40% human serum
Assay type: functional, organism-based, Hepacivirus hominis
Conditions: isolate Con1, Huh-7, 72 h

Which EC50 does the source give for `CN(C)S(=O)(=O)NC(=O)c1ccc2c(C3CCCCC3)c3n(c2c1)C[C@@]1(C(=O)N2CCOCC2)C[C@H]1c1ccccc1-3` here?
The EC50 was 0.218 µM.

With `COc1ccc2c(c1)C1CC1(C(=O)N1C3CC1CN(C)C3)Cn1c-2c(C2CCCCC2)c2ccc(C(=O)NS(=O)(=O)N(C)C)cc21` (racemic) as the molecule, how does the EC50 read?
The EC50 was 0.039 µM.

Which EC50 does the source give for `COc1ccc2c(c1)C1CC1(C(=O)N1C[C@@H](C)O[C@@H](C)C1)Cn1c-2c(C2CCCCC2)c2ccc(C(=O)NS(=O)(=O)N(C)C)cc21` (mixture of isomers) here?
Its EC50 is 0.098 µM.

For `COc1ccc2c(c1)C1CC1(C(=O)N1CC3CCC(C1)O3)Cn1c-2c(C2CCCCC2)c2ccc(C(=O)NS(=O)(=O)N(C)C)cc21` (racemic), which EC50 is on record?
The EC50 was 0.114 µM.

Tested on: Hepatitis C virus
Assay: Antiviral activity against Hepatitis C virus H77c genotype 1a infected in human HuH7 cells after 3 days by FRET assay
Assay type: functional, organism-based, Hepacivirus hominis
Conditions: genotype 1a H77, Huh-7, 72 h

For `CN(C)S(=O)(=O)NC(=O)c1ccc2c(C3CCCCC3)c3n(c2c1)C[C@@]1(C(=O)N2CCOCC2)C[C@H]1c1ccccc1-3`, which EC50 is on record?
Its EC50 is 0.026 µM.

For `O=C(O)c1ccc2c(C3CCCCC3)c3n(c2c1)CC(C(=O)N1CCOCC1)=Cc1ccccc1-3`, which EC50 is on record?
The EC50 was 0.404 µM.

Which EC50 does the source give for `COc1ccc2c(c1)C1CC1(C(=O)N1C3CC1CN(C)C3)Cn1c-2c(C2CCCCC2)c2ccc(C(=O)NS(=O)(=O)N(C)C)cc21` (racemic) here?
The EC50 was 0.004 µM.

For `COc1ccc2c(c1)C1CC1(C(=O)N1C[C@@H](C)O[C@@H](C)C1)Cn1c-2c(C2CCCCC2)c2ccc(C(=O)NS(=O)(=O)N(C)C)cc21` (mixture of isomers), which EC50 is on record?
Its EC50 is 0.012 µM.

For `COc1ccc2c(c1)C1CC1(C(=O)N1CC3CCC(C1)O3)Cn1c-2c(C2CCCCC2)c2ccc(C(=O)NS(=O)(=O)N(C)C)cc21` (racemic), which EC50 is on record?
Its EC50 is 0.007 µM.

With `COc1ccc2c(c1)C1CC1(C(=O)N1CC(O)(c3ccc(F)cc3)C1)Cn1c-2c(C2CCCCC2)c2ccc(C(=O)NS(=O)(=O)N(C)C)cc21` (racemic) as the molecule, how does the EC50 read?
Its EC50 is 0.054 µM.

Target: RNA-directed RNA polymerase (Hepacivirus hominis, UniProt O39930, P495A)
Sequence (O39930 entry or part of it P495A): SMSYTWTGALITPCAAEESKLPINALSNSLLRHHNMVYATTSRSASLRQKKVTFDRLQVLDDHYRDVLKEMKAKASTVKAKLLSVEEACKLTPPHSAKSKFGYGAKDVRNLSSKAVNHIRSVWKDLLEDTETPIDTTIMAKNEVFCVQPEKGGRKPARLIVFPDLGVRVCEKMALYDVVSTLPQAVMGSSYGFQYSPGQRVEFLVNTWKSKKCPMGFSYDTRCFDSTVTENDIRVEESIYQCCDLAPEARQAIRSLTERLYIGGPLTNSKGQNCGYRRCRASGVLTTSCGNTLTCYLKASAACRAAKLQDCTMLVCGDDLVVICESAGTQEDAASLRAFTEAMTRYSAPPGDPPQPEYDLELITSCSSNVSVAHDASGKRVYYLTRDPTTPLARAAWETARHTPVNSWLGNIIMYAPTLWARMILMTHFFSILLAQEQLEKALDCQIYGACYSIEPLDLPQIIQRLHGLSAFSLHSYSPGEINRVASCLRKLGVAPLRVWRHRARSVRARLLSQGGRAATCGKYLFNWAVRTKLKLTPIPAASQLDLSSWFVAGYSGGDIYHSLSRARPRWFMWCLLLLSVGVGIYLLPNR
Assay: Inhibition of HCV Con1 genotype 1b NS5B RNA dependent RNA polymerase P495A mutant-mediated incorporation of radiolabeled nucleotides by scintillation proximity assay
Design: species or system Hepatitis C virus (isolate Con1)
Conditions: not given

With `CN(C)S(=O)(=O)NC(=O)c1ccc2c(C3CCCCC3)c3n(c2c1)C[C@@]1(C(=O)N2CCOCC2)C[C@H]1c1ccccc1-3` as the molecule, how does the EC50 read?
The EC50 was 0.24 µM.

For `O=C(O)c1ccc2c(C3CCCCC3)c3n(c2c1)CC(C(=O)N1CCOCC1)=Cc1ccccc1-3`, which EC50 is on record?
Its EC50 is 3.4 µM.

Tested on: Hepatitis C virus
Assay: Antiviral activity against Hepatitis C virus Con1 genotype 1b infected in human HuH7 cells after 3 days by FRET assay
Assay type: functional, organism-based, Hepacivirus hominis
Conditions: isolate Con1, Huh-7, 72 h

Which EC50 does the source give for `CN(C)S(=O)(=O)NC(=O)c1ccc2c(C3CCCCC3)c3n(c2c1)C[C@@]1(C(=O)N2CCOCC2)C[C@H]1c1ccccc1-3` here?
The EC50 was 0.031 µM.

With `O=C(O)c1ccc2c(C3CCCCC3)c3n(c2c1)CC(C(=O)N1CCOCC1)=Cc1ccccc1-3` as the molecule, how does the EC50 read?
Its EC50 is 0.359 µM.

With `COc1ccc2c(c1)C1CC1(C(=O)N1C3CC1CN(C)C3)Cn1c-2c(C2CCCCC2)c2ccc(C(=O)NS(=O)(=O)N(C)C)cc21` (racemic) as the molecule, how does the EC50 read?
Its EC50 is 0.012 µM.

For `COc1ccc2c(c1)C1CC1(C(=O)N1C[C@@H](C)O[C@@H](C)C1)Cn1c-2c(C2CCCCC2)c2ccc(C(=O)NS(=O)(=O)N(C)C)cc21` (mixture of isomers), which EC50 is on record?
The EC50 was 0.024 µM.

Which EC50 does the source give for `COc1ccc2c(c1)C1CC1(C(=O)N1CC3CCC(C1)O3)Cn1c-2c(C2CCCCC2)c2ccc(C(=O)NS(=O)(=O)N(C)C)cc21` (racemic) here?
Its EC50 is 0.031 µM.

For `COc1ccc2c(c1)C1CC1(C(=O)N1CC(O)(c3ccc(F)cc3)C1)Cn1c-2c(C2CCCCC2)c2ccc(C(=O)NS(=O)(=O)N(C)C)cc21` (racemic), which EC50 is on record?
Its EC50 is 0.22 µM.

Tested on: Liver microsome
Conditions: human, microsomes

For `COc1ccc2c(c1)C1CC1(C(=O)N1C3CC1CN(C)C3)Cn1c-2c(C2CCCCC2)c2ccc(C(=O)NS(=O)(=O)N(C)C)cc21` (racemic), which Stability is on record?
The Stability was 100%.

With `COc1ccc2c(c1)C1CC1(C(=O)N1CC(O)(c3ccc(F)cc3)C1)Cn1c-2c(C2CCCCC2)c2ccc(C(=O)NS(=O)(=O)N(C)C)cc21` (racemic) as the molecule, how does the Stability read?
The Stability was 87%.

Tested on: Liver microsome
Conditions: rat, microsomes

For `COc1ccc2c(c1)C1CC1(C(=O)N1C3CC1CN(C)C3)Cn1c-2c(C2CCCCC2)c2ccc(C(=O)NS(=O)(=O)N(C)C)cc21` (racemic), which Stability is on record?
Its Stability is 100%.

With `COc1ccc2c(c1)C1CC1(C(=O)N1CC(O)(c3ccc(F)cc3)C1)Cn1c-2c(C2CCCCC2)c2ccc(C(=O)NS(=O)(=O)N(C)C)cc21` (racemic) as the molecule, how does the Stability read?
The Stability was 100%.
